The target in one assay is T1, 5-HT2 receptor (Rattus norvegicus, UniProt P14842).
T1 construct: The precipitate was used as the solution of receptor; from tissue; host or cells: rat brain (whole) crude membranes
Nature of the assay: Affinity to 5-HT2 receptor. The assay is classed as binding.

A further assay has as its target 5-HT1 receptor. Nature of the assay: Affinity to 5-HT1 receptor. Also on record: species or system rat. The settings on record: read-out: Affinity to 5-HT1 receptor (MIC50; mole concentration for 50% inhibition of binding); 2 nM ^3H-5-HT.
Assay [1] deals with monoamine release from synaptosomes. Nature of the assay: Releasing effect of monoamines in synaptosomes of the rat brain. To be noted: compound 5×10^-5 M with tyramine 10^-6 M (FIG. 9). Here is the method: Synaptosomes were prepared as follows. Fresh striatum (for determination of dopamine) and fresh forebrain (for determination of noradrenaline and serotonin) were removed from listar rats of 8 weeks old (NIPPON S. L. C.). Ten times volumes of ice-cold 0.35 M sucrose (pH 7.4) were added in the brain tissue and homogenized using glass homogenizer with teflon pestle which was revolted by motors. Thereafter the homogenate was centrifuged at 900×g for 10 min at 4° C. and the supernatant was recentrifuged at 11,500×g for 20 min. The pellet was resuspeded in ice-cold buffer. Final concentration of synaptosomes was prepared to 0.6 mg protein/ml. Protein concentration was determined by method described in Journal of Biological Chemistry, 193, 265-275 (1951) and the bovine serum albumin was used as an authentic standard. The release of monoamine from synaptosomes was determined by the following procedure based on the method described in Journal of Pharmacology and Experimental Therapeutics, 241, 27-33 (1987). The solution of 0.6 mg/ml of synaptosomes was preincubated for 5 min at 35° C. under the oxygenated (95% O2 and 5% CO2) condition. Thereafter 25 nM ^3 H-monoamines were added in synaptosomal solution and the solutions were incubated for 5 min at 35° C. […]

T1 sequence (P14842 whole entry): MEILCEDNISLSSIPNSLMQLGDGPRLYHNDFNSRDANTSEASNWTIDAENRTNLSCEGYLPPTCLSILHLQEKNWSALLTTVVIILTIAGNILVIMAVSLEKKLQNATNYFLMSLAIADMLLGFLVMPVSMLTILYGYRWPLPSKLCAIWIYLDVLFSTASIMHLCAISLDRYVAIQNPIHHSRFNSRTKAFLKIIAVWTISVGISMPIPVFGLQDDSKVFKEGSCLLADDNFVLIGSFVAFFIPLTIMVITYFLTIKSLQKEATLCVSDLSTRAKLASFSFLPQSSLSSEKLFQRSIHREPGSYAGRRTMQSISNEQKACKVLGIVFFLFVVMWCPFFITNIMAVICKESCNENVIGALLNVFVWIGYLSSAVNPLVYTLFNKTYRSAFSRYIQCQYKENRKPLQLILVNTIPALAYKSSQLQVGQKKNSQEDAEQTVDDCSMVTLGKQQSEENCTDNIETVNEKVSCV

For `CCCNC(CCC)Cc1c[nH]c2ccccc12.Cl` (stereo not drawn) [Compound No. 20, 1-(Indol-3-yl)-2-propylaminopentane Hydrochloride], the IC50 is above 10 µM at 5-HT2 receptor and 7 µM at 5-HT1 receptor.
As to `CCCNC(CCC)Cc1ccc2c(c1)OCO2.Cl` (stereo not drawn) [Compound No. 27, 1-(1,3-Benzodioxol-5-yl)-2-propylaminopentane Hydrochloride], the “antagonism against the effect of tyramine” value in assay [1] is recorded as “Tyramine antagonistic property”.

Source of the values: patent publication US6214859A, “Ethylamine derivatives” (Fujimoto Brothers Co., Ltd., priority 1997, dated 2001).
